This is an account of results in PubChem BioAssay (NCI).

Among the test systems are M19-MEL melanoma; DLD-1 colon; SNB-78 CNS; KM20L2 colon; XF 498 CNS; LXFL 529 NSCLC; MDA-N; DMS 273 small cell lung; RXF-631 renal; P388/ADR leukemia; P388 leukemia; SN12K1 renal.
Assay in all cases: NCI tumour cell line growth inhibition, 48 h

Each structure is given as a SMILES string. Where “and” joins values, the source holds several entries; their conditions need not be identical. Identical values can stand only once.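 Step 1: Grow cells in 96-well plates. Step 2: Expose to compound for 48 hours at 5 concentrations. Step 3: Interpolate endpoints linearly; if unreached, use highest concentration. Here, GI50 denotes the concentration required for 50% inhibition of growth. TGI marks complete inhibition of growth.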 Where only a bound is given, the exact number is not on record here.

Consider `NNC(=S)N/N=C(/C(=O)Nc1cc(Cl)ccc1Cl)C1C(=O)Nc2ccccc2S1=O` (configuration not stated), for which the TGI in the test with M19-MEL melanoma, in the test on DLD-1 colon, in the test on SNB-78 CNS, with KM20L2 colon, with XF 498 CNS and in the test on LXFL 529 NSCLC was greater than 100 µM each time.
Consider `Cc1ccc(C)c(NC(=O)NCc2ccc(Cl)cc2)c1`, for which the TGI with MDA-N was greater than 100 µM.
Same read-out and setting: in the case of `O=C1C2=Nc3ccccc3C(O)N2c2ccccc21` (configuration not stated) it was 3.5 µM; in that of `Cc1cnc(/C=N\NC(N)=S)c2cccc(N)c12`, greater than 100 µM.
Take `O=C([O][Hg][CH2]C1COC([CH2][Hg][O]C(=O)c2ccccc2)CO1)c1ccccc1` (configuration not stated): the GI50 with M19-MEL melanoma is 9.67 µM; in the test on DLD-1 colon, 2.59 µM; in the test with SNB-78 CNS it was 12.2 µM; in the test on DMS 273 small cell lung, 4.51 µM; with MDA-N, 12.5 µM and 3 µM; in the test with KM20L2 colon, 17.9 µM. In addition, the GI50 was 17.7 µM with XF 498 CNS and 1.53 µM in the test on LXFL 529 NSCLC. In addition, the TGI was 22.9 µM with M19-MEL melanoma; 7.25 µM with DLD-1 colon; 32.6 µM in the test on SNB-78 CNS; 9.83 µM in the test with DMS 273 small cell lung; 25.5 µM and 11.7 µM with MDA-N; 32.7 µM in the test with KM20L2 colon. Further, the TGI was 31.6 µM in the test with XF 498 CNS and 2.86 µM in the test on LXFL 529 NSCLC.
For the compound `COC1CCC(O)C(/C=C/[N+](=O)[O-])C1` (configuration not stated), in the test with MDA-N, the TGI stood at 5.56 µM.
With `C[C@]12CCc3nonc3C1CC[C@@H]1C2CC[C@]2(C)NC(=O)CCC12` (some centres not stated), the TGI with M19-MEL melanoma, in the test on RXF-631 renal, in the test on SNB-78 CNS, with DMS 273 small cell lung, with KM20L2 colon and in the test on XF 498 CNS was greater than 100 µM in each case. The same compound displayed a TGI with LXFL 529 NSCLC greater than 100 µM.
On to `O=C1OCCC1C(O)C1c2ccccc2-c2ccccc21` (configuration not stated), for which the TGI with M19-MEL melanoma, in the test with DLD-1 colon, in the test with SNB-78 CNS, with XF 498 CNS and with LXFL 529 NSCLC was greater than 100 µM in each case.
As to `c1ccc(-c2cc(C3CO3)c3ccccc3n2)cc1` (configuration not stated), the TGI in the test on MDA-N was found to be 39.4 µM.
Turning to `CN[C@@H](C)[C@@H](N)c1ccccc1`, the TGI in the test on RXF-631 renal, in the test on DLD-1 colon, in the test with SNB-78 CNS, with DMS 273 small cell lung and in the test on LXFL 529 NSCLC was greater than 100 µM throughout.
As to `CN(N=O)C(=O)N[C@@H](C=O)[C@@H](O)[C@H](O)[C@H](O)CO`, the GI50 was 619 µM with M19-MEL melanoma, greater than 750 µM in the test with DLD-1 colon, greater than 750 µM with DMS 273 small cell lung and greater than 750 µM in the test with XF 498 CNS. Also, the TGI was 629 µM and > 750 µM with M19-MEL melanoma; greater than 750 µM in the test with DLD-1 colon; 608 µM in the test on SNB-78 CNS; 575 µM and > 750 µM in the test on DMS 273 small cell lung; 635 µM in the test on P388/ADR leukemia; greater than 750 µM in the test on MDA-N. The TGI with P388 leukemia is greater than 504 µM; in the test with KM20L2 colon it was greater than 750 µM; with SN12K1 renal, 546 µM; in the test with XF 498 CNS, greater than 750 µM; with LXFL 529 NSCLC, greater than 750 µM.
`CN(C)CCNC(=O)Cn1cc([N+](=O)[O-])c(=O)c2ccccc21`: the TGI in the test on MDA-N was greater than 100 µM.
Consider `O=C1c2ccccc2C(=O)c2c(NCCNCCO)ccc(O)c21`, for which the TGI was 12.4 µM in the test on M19-MEL melanoma; 15.6 µM with DLD-1 colon; 20.2 µM in the test on SNB-78 CNS; 10.7 µM in the test on DMS 273 small cell lung; 12.3 µM in the test on KM20L2 colon; 18.8 µM in the test on XF 498 CNS. Besides, the TGI in the test on LXFL 529 NSCLC was determined as 15.5 µM.
The compound `CC(=O)c1c(C)n(C)c2c1nnc1ccccc12` gave a TGI in the test with MDA-N greater than 100 µM.
On to `O=c1cccccc1NCCCCCCNc1cccccc1=O`, for which the TGI with M19-MEL melanoma, with RXF-631 renal, in the test with DLD-1 colon, with SNB-78 CNS, with DMS 273 small cell lung and with KM20L2 colon was greater than 100 µM throughout. Also, the TGI with LXFL 529 NSCLC was greater than 100 µM.
With `CC(=O)O[C@]1(C)OC(=O)[C@@H](C)N1[N+](=O)[O-]`, the TGI with M19-MEL melanoma, with DLD-1 colon, in the test with SNB-78 CNS, with DMS 273 small cell lung, in the test on KM20L2 colon and in the test with LXFL 529 NSCLC was greater than 100 µM each time.
Take `OCC1OC(OCC(O)C(O)C(O)C(/C=N/Nc2ccccc2)=N/Nc2ccccc2)C(O)C(O)C1O` (configuration not stated): the TGI in the test with MDA-N is greater than 100 µM.
The same measure, in the same setting: in the case of `CN(C)CCOc1ccc(/C(=C(/CCCl)c2ccccc2)c2ccccc2)cc1` it was 30.2 µM.
Regarding `CC1(C)CCc2cc3c(cc2O1)OCC1c2cc4c(cc2OC31)OCO4` (configuration not stated), the TGI in the test on M19-MEL melanoma, in the test with RXF-631 renal, in the test on DLD-1 colon, in the test with KM20L2 colon, with XF 498 CNS and in the test on LXFL 529 NSCLC was greater than 100 µM each time.
As to `COc1ccc(N=Nc2c(-c3ccccc3)nn(C(=O)CC(=O)Nc3cccc(Cl)c3)c2-c2ccccc2)cc1`, the TGI with M19-MEL melanoma, with DLD-1 colon, with DMS 273 small cell lung, in the test on KM20L2 colon, with XF 498 CNS and in the test with LXFL 529 NSCLC was greater than 100 µM in each case.
Take `Cc1ccc(Nc2n[nH]c(=S)s2)cc1`: the TGI in the test with MDA-N was greater than 100 µM.
For the compound `O=c1c2ccccc2n2n1CC(O)C2` (configuration not stated), the TGI with M19-MEL melanoma, in the test with DLD-1 colon, in the test on SNB-78 CNS, with DMS 273 small cell lung, in the test on KM20L2 colon and in the test with XF 498 CNS was greater than 100 µM throughout.
`CN=C(NC#N)NCCSCc1nc[nH]c1C` displayed a TGI with MDA-N greater than 100 µM.
In the case of `O=C(c1cc2ccccc2o1)N(Cc1ccccc1)c1ccccc1`, the TGI with M19-MEL melanoma was 51.4 µM; in the test with RXF-631 renal, greater than 100 µM; in the test with DLD-1 colon it was 56.6 µM; with SNB-78 CNS, greater than 100 µM; with DMS 273 small cell lung it was greater than 100 µM; in the test with KM20L2 colon it was 35.9 µM. For the same compound, the TGI in the test on XF 498 CNS was 41.8 µM; in the test with LXFL 529 NSCLC, greater than 100 µM.
With `CCSC1(SCC)CC(Cc2ccc(OC)cc2)N(C=NC(C)(C)C)C1` (configuration not stated), the TGI in the test with M19-MEL melanoma was 97.7 µM; in the test with DLD-1 colon, greater than 100 µM; in the test on SNB-78 CNS, greater than 100 µM; in the test with DMS 273 small cell lung, greater than 100 µM; in the test with KM20L2 colon, 56.9 µM; in the test on XF 498 CNS, 38.9 µM. The compound also had a TGI with LXFL 529 NSCLC of 93.6 µM.
`Cn1nnnc1N/N=C/c1ccccc1` displayed a TGI in the test on MDA-N greater than 10 µM.
`CCOC(=O)C1=C(O)CSC1=Nc1ccccc1`: the TGI in the test on M19-MEL melanoma, in the test with RXF-631 renal, in the test with DLD-1 colon, with SNB-78 CNS, in the test on DMS 273 small cell lung and with KM20L2 colon was greater than 100 µM throughout. In the test on LXFL 529 NSCLC, the TGI is greater than 100 µM.
Take `CN(C)c1ccc(/C=C2\N=C(c3ccc([N+](=O)[O-])cc3)OC2=O)cc1`: the TGI in the test on MDA-N is greater than 100 µM.
Regarding `CC(C)(C)CC(C)(C)c1cc2c(O)c(c1)Cc1cc(C(C)(C)CC(C)(C)C)cc(c1O)Cc1cc(C(C)(C)CC(C)(C)C)cc(c1O)Cc1cc(C(C)(C)CC(C)(C)C)cc(c1O)Cc1cc(C(C)(C)CC(C)(C)C)cc(c1O)Cc1cc(C(C)(C)CC(C)(C)C)cc(c1O)C2`, the TGI in the test on M19-MEL melanoma, in the test with RXF-631 renal, with DLD-1 colon, in the test on SNB-78 CNS, in the test with DMS 273 small cell lung and with KM20L2 colon was greater than 100 µM in each case. Moreover, the TGI in the test with XF 498 CNS and in the test with LXFL 529 NSCLC was greater than 100 µM throughout.
Take `C=CC(C)(O)/C=C/C=C(\C)C(CC1OC1(C)C)OC(=O)/C(C)=C\C` (configuration not stated): in the test with MDA-N, the TGI is greater than 100 µM.
The same measure, in the same setting: in the case of `O=S(=O)(O)c1ccc(-c2nnc(-c3ccccn3)nc2-c2ccc(S(=O)(=O)O)o2)o1` it was greater than 100 µM.
Take `O=C1N(c2ccccc2)C(=O)C2(SC=NN2Cc2ccccc2)N1c1ccccc1` (configuration not stated): the TGI in the test with M19-MEL melanoma, in the test with DLD-1 colon, in the test on SNB-78 CNS, in the test with KM20L2 colon, in the test on XF 498 CNS and in the test on LXFL 529 NSCLC was greater than 100 µM each time.
As for `CCN1C(NN)=NS(=O)(=O)c2ccccc21`, in the test on MDA-N, the TGI is greater than 100 µM.
Regarding `COc1ccc(C(=O)C(C(=O)C(=O)Nc2ccc(Cl)c(Cl)c2)c2ccc(OC)cc2)cc1` (configuration not stated), the TGI in the test on M19-MEL melanoma, in the test with DLD-1 colon, with SNB-78 CNS, with DMS 273 small cell lung, in the test on KM20L2 colon and in the test with XF 498 CNS was greater than 100 µM in each case. Further, the TGI with LXFL 529 NSCLC is greater than 100 µM.
In the case of `CC/C(=C(/CC)c1ccc([O-])cc1)c1ccc([O-])cc1.CC/C(=C(\CC)c1ccc([O-])cc1)c1ccc([O-])cc1.O=C([CH-]C(=O)c1ccccc1)c1ccccc1.O=C([CH-]C(=O)c1ccccc1)c1ccccc1.O=C([CH-]C(=O)c1ccccc1)c1ccccc1.O=C([CH-]C(=O)c1ccccc1)c1ccccc1.[Ti+4].[Ti+4]`, the GI50 in the test with DLD-1 colon was 19.8 µM; with SNB-78 CNS it was 72.4 µM; with DMS 273 small cell lung it was 28.7 µM; with KM20L2 colon it was 29.5 µM. Also, the TGI in the test on DLD-1 colon was 53.1 µM; in the test with SNB-78 CNS it was greater than 100 µM; with DMS 273 small cell lung it was greater than 100 µM; with KM20L2 colon it was 77.8 µM.
In the test on MDA-N, `C/C1=C/C2=CC(C)C[C@@H]2C(=O)[C@]2(C)C(=O)CC(C)(C)[C@H]2CC1=O` (some centres not stated) gave a TGI greater than 50 µM.
In the case of `O=P(NC12CC3CC(CC(C3)C1)C2)(N1CC1)N1CC1`, the TGI in the test on M19-MEL melanoma, with DLD-1 colon, in the test on SNB-78 CNS, in the test on DMS 273 small cell lung, with MDA-N and with KM20L2 colon was greater than 100 µM throughout. This compound showed a TGI in the test on LXFL 529 NSCLC greater than 100 µM.
